Where no end group is shown, it is not given here. TMR = tetramethyl-rhodamine
How the values were obtained:
ratPTH1R = test: internalization of TMR-labeled ligand-PTH1R complexes in GR-35 cells; format: cell-based, rat; conditions: TMR-labeled ligands (TMR at Lys13), 15 min, 21°C, HEK293 ratPTH1R/glosensor GR-35 cells, epifluorescent microscopy; 100nM (methods) or 10nM (results); repeated two times
Description: Internalization of ligand‐PTH1R complexes was assessed by fluorescent microscopy in stably transfected HEK293/ratPTH1R/glosensor (GR‐35) cells. The cells were cultured on glass coverslips in 24‐well plates to ~75% of confluency, and then treated with a tetramethylrhodamine (TMR)‐labeled PTH analog (100nM, TMR attached to Lys13) in HBSS containing 0.1% BSA (HB buffer) for 15 min at 21°C. The cells were then rinsed thrice with HB buffer, fixed with 4% formalin for 5 min, mounted with vector‐shield containing 4,6‐diamidino‐2‐phenylindole (DAPI) on a glass microscope slide, and viewed and digitally imaged using a Nikon epifluorescent microscope (Nikon, Tokyo, Japan) equipped with a charge‐coupled device (CCD) camera configured with SPOT imaging software (SPOT Imaging, Sterling Heights, MI, USA).
Next, we asked whether PTH analogs might have different effects on PTH1R activation‐dependent internalization. For this, HEK293 cells stably expressing a rat PTH1R cDNA (GR‐35 cells) were treated with tetramethyl‐rhodamine‐labeled versions of hPTH (1‐34), PTHrP, and abaloparatide (the TMR fluorophore is attached at the K13 position of each peptide). Cells were treated for 15 min at room temperature (21°C) at peptide doses of 10nM. After excess unbound peptide was washed away, cells were examined by epifluorescent microscopy.

[1] = molecular target: T1, PTH1R (endogenous, Ocy454 cells) (Mus musculus, UniProt P41593); test: intracellular cAMP in Ocy454 cells; format: cell-based, murine; conditions: IBMX (2mM), 30 min, room temperature, radioimmunoassay, repeated three times, Fig 3A, read-out: cAMP generation EC50
T1 construct: effects of distinct PTH1R ligands on endogenous receptors in Ocy454 cells; endogenous in cells; host or cells: Ocy454 cells (murine osteocyte-like line, subclone 6-9)
T1 sequence (P41593 27-591): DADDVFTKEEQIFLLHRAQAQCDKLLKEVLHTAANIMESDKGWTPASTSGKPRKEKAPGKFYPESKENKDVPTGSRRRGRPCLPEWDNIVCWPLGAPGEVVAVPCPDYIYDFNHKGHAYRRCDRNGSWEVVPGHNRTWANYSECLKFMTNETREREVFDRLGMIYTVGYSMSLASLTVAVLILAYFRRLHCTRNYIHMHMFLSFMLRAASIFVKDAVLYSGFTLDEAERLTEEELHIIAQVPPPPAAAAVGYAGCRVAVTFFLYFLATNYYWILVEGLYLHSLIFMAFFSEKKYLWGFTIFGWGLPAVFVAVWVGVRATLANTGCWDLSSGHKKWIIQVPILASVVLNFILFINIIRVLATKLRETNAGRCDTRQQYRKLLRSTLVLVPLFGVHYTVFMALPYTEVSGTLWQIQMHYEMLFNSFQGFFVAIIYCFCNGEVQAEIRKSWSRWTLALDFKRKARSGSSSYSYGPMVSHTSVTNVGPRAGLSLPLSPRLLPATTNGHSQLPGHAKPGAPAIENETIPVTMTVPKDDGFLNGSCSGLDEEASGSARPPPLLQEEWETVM
Description: Confluent Ocy454 cells in 96‐well plates were treated with a abaloparatide or a PTH analog at varying concentrations in a buffer of Hanks balanced salts solution (HBSS) containing 0.1% BSA and 3‐isobutyl‐1‐methylxanthine (IBMX) (2mM) for 30 min at room temperature. The buffer was then removed and the cells were lysed by placing the plate on a bed of powdered dry ice and adding 50 μL of 50mM HCl. After freezing and thawing, the lysates were diluted in water and then assessed for cAMP content by radioimmunoassay.
First, we assessed the effects of different PTH analogs on cAMP generation. For this, cells were treated with different concentrations of peptides in the presence of IBMX for 30 min at room temperature, followed by radioimmunoassay for cAMP.

hPTH1R = test: intracellular calcium (Fura2-AM) in HEK293/hPTH1R/glosensor (GP-2.3) cells; format: cell-based, human; conditions: 100nM; HEK293 cells stably expressing hPTH1R (GP-2.3); Fura2-AM ratiometric fluorescence 340/380 nm; 150 s after ligand addition; repeated two times
Description: Signaling via the iCa^++ pathway was assessed in stably transfected HEK‐HEK293/hPTH1R/glosensor (GP‐2.3) cells using the calcium‐sensitive fluorophore Fura2‐AM (Invitrogen, Life Tech. Grand Island, NY, USA).^( ^32 ^) Confluent cells in a black, 96‐well plate were preloaded with Fura2‐AM (5μM) for 45 min and then unloaded in buffer for 30 min. The plate was then processed using a Perkin Elmer Envision plate reader (Perkin Elmer, Waltham, MA, USA) to monitor fluorescence emission at a wavelength (λem) of 515 nm, upon sequential excitation at wavelengths (λex) of 340 nm and 380 nm. Data were recorded at 2‐s intervals for 10 s prior to, and for 150 s after ligand addition. The data at each time point were calculated as the ratio of the fluorescence signal obtained with excitation at 340 nm to that obtained with excitation at 380 nm.
(§1) First, we assessed the ability of distinct PTH1R peptide ligands (Fig. 1A ) to induce Gαq/PKC‐dependent increases in intracellular calcium in HEK293 cells stably expressing hPTH1R (GP‐2.3 cells). For this, cells were preloaded with the calcium indicator dye Fura2‐AM, and then treated with different PTH ligands at a concentration of 100nM. Intracellular calcium fluxes were measured by ratiometric fluorescence (excitation = 340 nm and 380 nm, emission = […]) over time.

[2] = tested on: Gαq/phospholipase signaling; conditions: cited from earlier work
Description: as §1

Row | Compound | ligand-PTH1R internalization (ratPTH1R) | EC50 [1] [pM] | further results
1 | ^TMRPTHc35 (1‐35): Tetramethyl‐rhodamine (TMR)‐labeled version of PTH, TMR attached to Lys13 (SVSEIQLMHNLGK(TMR)HLNSMERVEWLRKKLQDVHNFV; UniProt P01270 32-66, looked up, fragment) | induced ligand‐PTH1R internalization | – | –
2 | CC[C@H](C)[C@H](NC(=O)[C@H](CO)NC(=O)[C@H](CCCCN)NC(=O)CNC(=O)[C@H](CCCCN)NC(=O)[C@H](CC(=O)O)NC(=O)[C@H](Cc1cnc[nH]1)NC(=O)[C@H](CC(C)C)NC(=O)[C@H](CC(C)C)NC(=O)[C@H](CCC(N)=O)NC(=O)[C@H](Cc1cnc[nH]1)NC(=O)[C@H](CCC(=O)O)NC(=O)[C@H](CO)NC(=O)[C@@H](NC(=O)[C@H](C)N)C(C)C)C(=O)N[C@@H](CCC(N)=O)C(=O)N[C@@H](CC(=O)O)C(=O)N[C@@H](CC(C)C)C(=O)N[C@@H](CCCNC(=N)N)C(=O)N[C@@H](CCCNC(=N)N)C(=O)N[C@@H](CCCNC(=N)N)C(=O)N[C@@H](CCC(=O)O)C(=O)N[C@@H](CC(C)C)C(=O)N[C@@H](CC(C)C)C(=O)N[C@@H](CCC(=O)O)C(=O)N[C@@H](CCCCN)C(=O)N[C@@H](CC(C)C)C(=O)N[C@@H](CC(C)C)C(=O)NC(C)(C)C(=O)N[C@@H](CCCCN)C(=O)N[C@@H](CC(C)C)C(=O)N[C@@H](Cc1cnc[nH]1)C(=O)N[C@H](C(=O)N[C@@H](C)C(N)=O)[C@@H](C)O [abaloparatide] | – | 589 | –
3 | Trp1‐PTH (1‐34): a PTH analog defective at activating Gαq/phospholipase signaling (WVSEIQLMHNLGKHLNSMERVEWLRKKLQDVHNF; Parathyroid hormone; UniProt P01270 32-65, looked up, variant S1W) | – | – | intracellular calcium release (hPTH1R): does not stimulate intracellular calcium; activation of Gαq/phospholipase signaling [2]: defective at activating Gαq/phospholipase signaling
4 | ^TMRPTHrP (1‐36): Tetramethyl‐rhodamine (TMR)‐labeled version of PTHrP, TMR attached to Lys13 | induced ligand‐PTH1R internalization | – | –
5 | AVAEIQLMHQRAKWIQDARRRAFLHKLIAEIHTAEI [LA‐PTH] | – | 562 | –
